These results are taken from publication PMC7819857, “Identification of Inhibitors of Integrin Cytoplasmic Domain Interactions With Syk” (Frontiers in Immunology, 2021).

Assay [1] concerns FcγRI signaling via Syk in THP-1 cells. The assay is described as follows: FcγRI-crosslinking-induced phosphorylation of Syk in THP-1 cells. It is filed as cell-based, human. The note with it: 100 µM loaded cells, anti-FcγRI mAb 276426. As for the experimental part: Syk phosphorylation assays were performed by immobilizing vascular cell adhesion molecule-1 (VCAM)-1 (3 ug/ml), CS-1-BSA (10 ug/ml), or specific monoclonal antibodies (anti-FcγRI mAb 276426, anti-α4β1 mAb 19H8, anti-β2 mAb 76C3, anti-αvβ3 mAb LM609 all at 5 ug/ml) overnight at 4°C in Tris-HCl pH 7.5, 150 mM NaCl, in 6-well plates (non-tissue culture treated, Becton Dickenson, cat# BD351146). Plates were then blocked with BSA (2% w/v) for 1 h at room temperature. […] After electrophoresis, proteins were transferred to nitrocellulose for 1 h 100 V room temperature, blocked in 5% non-fat milk in TBS-T, and probed with the indicated primary antibody at 1:1,000 overnight at 4°C, followed by species-appropriate HRP secondary antibody (Southern Biotech) at 1:5,000 (30 min at room temperature), and detected using Pierce West Pico (Thermo Scientific cat# 34580). […]
Figure 6 Selective inhibition of integrin signaling by ceftazidime. […] Data are expressed as mean ± range from duplicate determinations. […] Kinase activity is expressed as percent of maximum signal. Data are expressed as mean ± SEM (n = 3). **p < 0.01 (D) Selective effects of ceftazidime on integrin signaling. […] Phosphorylation of Syk (left and right panel) and Pyk-2 (center panel) was analyzed by immunoprecipitation and western blot. […] Results are expressed as the mean ± SEM. […]

Assay [2] addresses T1, integrin β3 cytoplasmic domain (bβ3(fl)) : GST-Syk(6-370) (Homo sapiens, UniProt P43405).
T1 construct: the tandem SH2 domains of Syk (residues 6-370); made in house; host or cells: E. coli BL21(DE3)
Description: ELISA-based orthogonal assay, bβ3(fl) and GST-Syk(6-370). It is filed as binding. As for the experimental part:
For ELISA-based assays, 96-well plates (Costar cat# 9018) were coated overnight at 4°C with neutravidin (Thermo Scientific, cat#31050) in 10 mM Tris pH 9 and 100 mM NaCl. After overnight incubation, non-specific binding sites were blocked with bovine serum albumin (BSA) (2% w/v) for at least 1 h at room temperature. Plates were washed in 25 mM HEPES pH 7.5, 100 mM NaCl, 0.1% BSA, and 0.01% TritonX-100 (assay buffer), and indicated biotinylated β3 peptide was incubated for at least 2 h at room temperature (0.5–3 ug/ml in di-H2O). After washing in the assay buffer, GST-fusion proteins were added (50 ul, indicated concentrations) and incubated at room temperature for 1 h in assay buffer. For compound inhibition studies, compounds were added to GST-fusion proteins (at indicated concentrations) before they were added to plates. Plates were washed 3× with assay buffer (200 ul) to remove unbound GST-fusion protein. Horseradish peroxidase (HRP)-conjugated anti-GST antibody [Polyclonal anti-GST(Z-5)-HRP, Santa Cruz Biotechnology, cat #sc-459 0.2 ug/ml] was incubated in washed plates in 50 ul assay buffer for 45 min at room temperature. After washing, the signal was generated with 1-step Ultra TMB-ELISA (Thermo Scientific, cat#34028), stopped with 2 N H2SO4, and read on a plate reader (SPARK 10M/Tecan) at 450 nm.
Figure 3 Dose-response curves in primary and orthogonal screens. (A) AlphaScreen dose-response curves. […] Data are expressed as mean fluorescence (Fl520) ± range from duplicates, and one representative experiment of “n” performed is shown. (B) Orthogonal ELISA-based dose-response assays. […] Data are expressed as mean abs450 ± SEM from triplicate determinations, and one of three representative experiments is shown. (C) Ceftazidime inhibition of β3 peptide binding to Syk from THP-1 whole cell lysate. THP-1 cell lysate (100 ug) was treated with or without ceftazidime (Ctaz) before incubation with β3-coated avidin-agarose beads, and bound Syk was measured by western blot (example shown in inset). Blank beads served as a negative control. […]
In general terms: An ELISA detects its analyte on a solid surface through an enzyme-linked reagent.

Turning to `CC(C)(O/N=C(\C(=O)N[C@@H]1C(=O)N2C(C(=O)[O-])=C(C[n+]3ccccc3)CS[C@H]12)c1csc(N)n1)C(=O)O` [ceftazidime], the “tyrosine phosphorylation of Syk on FcγRI crosslinking” value in assay [1] is “not inhibited”. Moreover, the “inhibitory activity in ELISA-based orthogonal assay” value in assay [2] was “remained active”.
